ChEMBL document CHEMBL1145700, “Pyraxinine, a Novel Nitrogenous Compound from the Marine Sponge Cymbastela cantharella” (J Nat Prod, 1997)

Test: Inhibition of LPS-induced macrophagic NOS at 100 uM

- inhibition: 50%
Structure (SMILES): N=C(N)Nc1cccnc1
